# Measurements taken from patent publication US11535643B2, “Macrolides with modified desosamine sugars and uses thereof” (President and Fellows of Harvard College, priority 2015, dated 2022).
# Where two headings read alike, the source gives them in different places.
# Legend:
# Assay type in all cases: cell-based
# [1] = tested on: S. aureus; assay: Broth dilution MIC determination (CLSI) against S. aureus strains
# Description: (§1) Minimum inhibitory concentrations (MICs) for macrolides described herein have been determined for unique strains of S. aureus, S. pneumoniae, S. pyogenes, E. faecalis, E. coli, A. baumannii, K. pneumoniae, P. aeruginosa, and H. influenzae, including several multidrug-resistant strains, with a special focus on macrolide resistant mechanisms. Azithromycin and solithromycin were included as control compounds. CLSI standard procedures for broth dilution MIC determination were used. Data for exemplary compounds described herein is shown in Tables M1-M7 and in Tables N1-N4.
# [2] = tested on: S. pneumoniae; assay: Broth dilution MIC determination (CLSI) against S. pneumoniae strains; settings: Streptococcus pneumoniae
# Description: as §1
# [3] = tested on: S. pyogenes; assay: Broth dilution MIC determination (CLSI) against S. pyogenes strains; settings: Streptococcus pyogenes
# Description: as §1
# [4] = tested on: E. faecalis; assay: Broth dilution MIC determination (CLSI) against E. faecalis strains; settings: Enterococcus faecalis
# Description: as §1
# [5] = tested on: E. coli; assay: Broth dilution MIC determination (CLSI) against E. coli strains
# Description: as §1
# [6] = tested on: A. baumannii; assay: Broth dilution MIC determination (CLSI) against A. baumannii strains
# Description: as §1
# [7] = tested on: K. pneumoniae; assay: Broth dilution MIC determination (CLSI) against K. pneumoniae strains
# Description: as §1, with “used.” for “used. Data for exemplary compounds described herein is shown in Tables M1-M7 and in Tables N1-N4.”
# [8] = tested on: P. aeruginosa; assay: Broth dilution MIC determination (CLSI) against P. aeruginosa strains
# Description: as §1
# [9] = S. aureus ATCC29213, strain MP-12 (Table N4)
# [10] = S. aureus BAA 977 iErm, strain MP-17 (Table N4)
# [11] = S. aureus Clinical-cErm, strain MP-513 (Table N4)
# [12] = S. aureus USA300-msr(a), strain MP-549 (Table N4)
# [13] = E. coli ATCC25922, strain MP-4 (Table N4)
# [14] = E. coli Clinical, strain MP-541 (Table N4)
# [15] = E. coli clinical-cErmB, strain MP-532 (Table N4)
# [16] = E. coli tolC, strain MP-9 (Table N4)
# [17] = A. baumannii ATCC 19606, strain MP-15 (Table N4)
# [18] = A. baumannii Clinical-AZT low, strain MP-577 (Table N4)
# [19] = A. baumannii Clinical-MDR, strain MP-576 (Table N4)
# [20] = K. pneumoniae ATCC 10031, strain MP-14 (Table N4)
# [21] = K. pneumoniae Clinical, strain MP-548 (Table N4)
# [22] = K. pneumoniae Clinical-MDR, strain MP-546 (Table N4)
# [23] = P. aeruginosa ATCC27853, strain MP-3 (Table N4)
# [24] = P. aeruginosa PAO1, strain MP-7 (Table N4)
# [25] = P. aeruginosa mex-oprM-deletion, strain MP-8 (Table N4)
structure (smiles),measurement,setting,value
CC[C@H]1OC(=O)[C@H](C)C(=O)[C@H](C)[C@@H](O[C@@H]2O[C@H](C)CC(N3CCCC3)C2O)[C@](C)(OC)C[C@@H](C)CN[C@H](C)[C@H]2N(CCCCn3cc(-c4cccc(N)c4)nn3)C(=O)O[C@]12C (some centres unmarked) [FSM-120361],MIC,"[1]; Staphylococcus aureus, ATCC29213, ATCC29213, Strain No. MP-12, read-out: MIC S. aureus ATCC29213",32 µg/mL
same,MIC,"[1]; Staphylococcus aureus, ATCCBAA977, ATCCBAA-977, Strain No. MP-17, read-out: MIC S. aureus ATCCBAA-977",32 µg/mL
same,MIC,"[1]; Staphylococcus aureus, MRSA / USA100, USA100, Strain No. MP-618 UNT-096, read-out: MIC S. aureus (MRSA) USA100",> 64 µg/mL
same,MIC,"[1]; Staphylococcus aureus, MRSA / USA300, USA300, Strain No. MP-549, read-out: MIC S. aureus (MRSA) USA300",32 µg/mL
same,MIC,"[1]; Staphylococcus aureus, MRSA / USA600, GISA USA600, Strain No. MP-619 UNT-120, read-out: MIC S. aureus (MRSA) GISA USA600",> 64 µg/mL
same,MIC,"[1]; Staphylococcus aureus, MRSA, ST-228 cErm, Strain No. MP-513, read-out: MIC S. aureus (MRSA) ST-228 cErm",> 64 µg/mL
same,MIC,"[2]; ATCC49619, ATCC49619, Strain No. MP-21, read-out: MIC S. pneumoniae ATCC49619",0.25 µg/mL
same,MIC,"[2]; read-out: MIC S. pneumoniae mefA, mefA, Strain No. MP-626 UNT-038",0.125 µg/mL
same,MIC,"[2]; read-out: MIC S. pneumoniae mefA, mefA, Strain No. MP-627 UNT-039",0.125 µg/mL
same,MIC,"[3]; ATCC19615, ATCC19615, Strain No. MP-19, read-out: MIC S. pyogenes ATCC19615",0.06 µg/mL
same,MIC,"[3]; mac resistant, Strain No. MP-625 UNT-014, read-out: MIC S. pyogenes mac resistant",0.5 µg/mL
same,MIC,"[4]; ATCC29212, ATCC29212, Strain No. MP-24, read-out: MIC E. faecalis ATCC29212",4 µg/mL
same,MIC,"[4]; van resistant, Strain No. UNT-039, read-out: MIC E. faecalis van resistant",> 64 µg/mL
same,MIC,"[5]; Escherichia coli, ATCC25922, ATCC25922, Strain No. MP-4, read-out: MIC E. coli ATCC25922",32 µg/mL
same,MIC,"[5]; Escherichia coli, ATCC25922, ATCC25922:tolC, Strain No. MP-9, read-out: MIC E. coli ATCC25922:tolC",4 µg/mL
same,MIC,"[5]; Escherichia coli, clinical, Strain No. MP541, read-out: MIC E. coli clinical",32 µg/mL
same,MIC,"[5]; Escherichia coli, clinical-cErm, Strain No. MP532, read-out: MIC E. coli clinical-cErm",> 64 µg/mL
same,MIC,"[6]; Acinetobacter baumannii, ATCC19606, ATCC19606, Strain No. MP-15, read-out: MIC A. baumannii ATCC19606",32 µg/mL
same,MIC,"[6]; Acinetobacter baumannii, clinical, Strain No. MP576, read-out: MIC A. baumannii clinical",> 64 µg/mL
same,MIC,"[6]; Acinetobacter baumannii, clinical, Strain No. MP577, read-out: MIC A. baumannii clinical",64 µg/mL
same,MIC,"[7]; Klebsiella pneumoniae, ATCC10031, ATCC10031, Strain No. MP-14, read-out: MIC K. pneumoniae ATCC10031",4 µg/mL
same,MIC,"[7]; Klebsiella pneumoniae, clinical, Strain No. MP546, read-out: MIC K. pneumoniae clinical",> 64 µg/mL
same,MIC,"[7]; Klebsiella pneumoniae, clinical, Strain No. MP548, read-out: MIC K. pneumoniae clinical",64 µg/mL
same,MIC,"[8]; Pseudomonas aeruginosa, PAO1, read-out: MIC P. aeruginosa PAO1",> 64 µg/mL
same,MIC,"[8]; Pseudomonas aeruginosa, PAO1, read-out: MIC P. aeruginosa PAO1:mex",16 µg/mL
same,MIC,"[8]; Pseudomonas aeruginosa, ATCC27853, Strain No. MP-3, read-out: MIC P. aeruginosa ATCC27853",> 64 µg/mL
CCC1OC(=O)C(C)C(=O)C(C)C(OC2OC(C)CC(Nc3cnccn3)C2O)C(C)(OC)CC(C)CNC(C)C2N(CCCCn3cc(-c4cccc(N)c4)nn3)C(=O)OC12C (centres unmarked) [FSM-120410],MIC,[1]; [9],>64 µg/mL
same,MIC,[1]; [10],>64 µg/mL
same,MIC,[1]; [11],>64 µg/mL
same,MIC,[1]; [12],>64 µg/mL
same,MIC,[5]; [13],>64 µg/mL
same,MIC,[5]; [14],>64 µg/mL
same,MIC,[5]; [15],>64 µg/mL
same,MIC,[5]; [16],>64 µg/mL
same,MIC,[6]; [17],>64 µg/mL
same,MIC,[6]; [18],>64 µg/mL
same,MIC,[6]; [19],>64 µg/mL
same,MIC,[7]; [20],>64 µg/mL
same,MIC,[7]; [21],>64 µg/mL
same,MIC,[7]; [22],>64 µg/mL
same,MIC,[8]; [23],>64 µg/mL
same,MIC,[8]; [24],>64 µg/mL
same,MIC,[8]; [25],>64 µg/mL
CCC1OC(=O)C(C)C(=O)C(C)C(OC2OC(C)CC(N3CCC(O)C3)C2O)C(C)(OC)CC(C)CNC(C)C2N(CCCCn3cc(-c4cccc(N)c4)nn3)C(=O)OC12C (centres unmarked) [FSM-120416],MIC,[1]; [9],>64 µg/mL
same,MIC,[1]; [10],>64 µg/mL
same,MIC,[1]; [11],>64 µg/mL
same,MIC,[1]; [12],>64 µg/mL
same,MIC,[5]; [13],>64 µg/mL
same,MIC,[5]; [14],>64 µg/mL
same,MIC,[5]; [15],>64 µg/mL
same,MIC,[5]; [16],8 µg/mL
same,MIC,[6]; [17],>64 µg/mL
same,MIC,[6]; [18],>64 µg/mL
same,MIC,[6]; [19],>64 µg/mL
same,MIC,[7]; [20],32 µg/mL
same,MIC,[7]; [21],>64 µg/mL
same,MIC,[7]; [22],>64 µg/mL
same,MIC,[8]; [23],>64 µg/mL
same,MIC,[8]; [24],>64 µg/mL
same,MIC,[8]; [25],>64 µg/mL
CCC1OC(=O)C(C)C(=O)C(C)C(OC2OC(C)CC(N3CCC(O)C3)C2O)C(C)(OC)CC(C)CNC(C)C2N(CCCCn3cc(-c4cccc(N)c4)nn3)C(=O)OC12C (centres unmarked) [FSM-120417],MIC,[1]; [9],32 µg/mL
same,MIC,[1]; [10],64 µg/mL
same,MIC,[1]; [11],>64 µg/mL
same,MIC,[1]; [12],64 µg/mL
same,MIC,[5]; [13],16 µg/mL
same,MIC,[5]; [14],16 µg/mL
same,MIC,[5]; [15],>64 µg/mL
same,MIC,[5]; [16],2 µg/mL
same,MIC,[6]; [17],32 µg/mL
same,MIC,[6]; [18],32 µg/mL
same,MIC,[6]; [19],>64 µg/mL
same,MIC,[7]; [20],4 µg/mL
same,MIC,[7]; [21],64 µg/mL
same,MIC,[7]; [22],>64 µg/mL
same,MIC,[8]; [23],>64 µg/mL
same,MIC,[8]; [24],>64 µg/mL
same,MIC,[8]; [25],32 µg/mL
